Legend:
[1] = system: large crabgrass; assay: Test B pre-/postemergence herbicide test; format: in vivo, Digitaria sanguinalis; conditions: for Crabgrass, Large plant response rating: postemergence, scale 0 (no effect) to 100 (complete control)
Method in brief: (§1)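 Greenhouse pot assay with simultaneous preemergence (treated seed) and postemergence (2–18 cm seedlings) applications of surfactant-containing, non-phytotoxic solvent formulations. Response scored visually 13–15 days later on a 0–100 scale, 100 meaning complete control.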

[2] = system: morningglory; assay: Test B pre-/postemergence herbicide test; format: in vivo, Ipomoea coccinea; conditions: for Morningglory plant response rating: postemergence, scale 0 (no effect) to 100 (complete control)
Method in brief: (§2)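 Evaluation is visual, comparing treated with control plants on a scale where 0 means no effect and 100 means full control. Treatments were preemergence, or postemergence on seedlings 2–18 cm tall, and held 13–15 days in the greenhouse.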

[3] = system: wild oat; assay: Test B postemergence herbicide test; format: in vivo, Avena fatua; conditions: postemergence, visual rating, scale 0 (no effect) to 100 (complete control)
Method in brief: (§3)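 Read-out: visual comparison with controls, scored 0 to 100, where 100 means complete control and 0 no effect. Formulated chemicals were applied postemergence to plants 2–18 cm tall (1- to 4-leaf), or to flooded-paddy plants at the 2-leaf stage, then held 13 to 15 days under glass.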

[4] = system: velvetleaf; assay: Test B pre-/postemergence herbicide test; format: in vivo, Abutilon theophrasti; conditions: for Velvetleaf plant response rating: postemergence, scale 0 (no effect) to 100 (complete control)
Method in brief: as §1

[5] = system: lambsquarters; assay: Test B pre-/postemergence herbicide test; format: in vivo, Chenopodium album; conditions: for Lambsquarters plant response rating: postemergence, scale 0 (no effect) to 100 (complete control)
Method in brief: as §1

[6] = system: wheat; assay: Test B postemergence herbicide test; format: in vivo, Triticum aestivum; set-up: key to Wheat plant response rating: 0 = no effect, 100 = complete control; conditions: postemergence, visual rating, scale 0 (no effect) to 100 (complete control)
Method in brief: as §3

[7] = system: Surinam grass; assay: Test B pre-/postemergence herbicide test; format: in vivo, Urochloa decumbens; conditions: for Surinam Grass plant response rating: postemergence, scale 0 (no effect) to 100 (complete control)
Method in brief: as §1

[8] = system: rice; assay: Test B pre-/postemergence herbicide test; format: in vivo, Oryza sativa; conditions: 0 = no effect, 100 = complete control, preemergence
Method in brief: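 Species tested were Echinochloa crus-galli, Ipomoea coccinea, Xanthium strumarium and Oryza sativa, treated both before emergence and at the 1- to 4-leaf stage; rice and barnyardgrass were also tested under flooding at 2 leaves. Greenhouse incubation lasted 13–15 days before visual 0–100 scoring.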

[9] = system: blackgrass; assay: Test B postemergence herbicide test; format: in vivo, Alopecurus myosuroides; conditions: postemergence, visual rating, scale 0 (no effect) to 100 (complete control)
Method in brief: (§4)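 Each value is a visual 0–100 response rating taken against controls 13 to 15 days after treatment in the greenhouse. Plants received formulated chemical postemergence at the 1- to 4-leaf stage or, in flooded paddy, at the 2-leaf stage.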

[10] = system: small flower umbrella sedge; assay: Test B flooded paddy test; format: in vivo, Cyperus difformis; conditions: 1000 g ai/ha, scale 0 to 100 (0 no effect, 100 complete control)
Method in brief: as §4

[11] = system: pigweed; assay: Test B pre-/postemergence herbicide test; format: in vivo, Amaranthus retroflexus; conditions: for Pigweed plant response rating: postemergence, scale 0 (no effect) to 100 (complete control)
Method in brief: as §1

[12] = system: barnyardgrass; assay: Test B flooded paddy test; format: in vivo, Echinochloa crus-galli; conditions: 1000 g ai/ha, scale 0 to 100 (0 no effect, 100 complete control)
Method in brief: as §4

[13] = system: rice; assay: Test B flooded paddy test; format: in vivo, Oryza sativa; conditions: 1000 g ai/ha, scale 0 to 100 (0 no effect, 100 complete control)
Method in brief: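 Greenhouse test; postemergence application to plants at 1–4 leaves (2–18 cm); paddy species at 2 leaves; evaluated visually vs controls at 13–15 days; scale 0–100 (100 = complete control).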

[14] = system: ducksalad; assay: Test B flooded paddy test; format: in vivo, Heteranthera limosa; conditions: 1000 g ai/ha, scale 0 to 100 (0 no effect, 100 complete control)
Method in brief: as §4

[15] = system: barnyardgrass; assay: Test B pre-/postemergence herbicide test; format: in vivo, Echinochloa crus-galli; conditions: for Barnyardgrass plant response rating: postemergence, scale 0 (no effect) to 100 (complete control)
Method in brief: as §2

[16] = system: cocklebur; assay: Test B pre-/postemergence herbicide test; format: in vivo, Xanthium strumarium; conditions: for Cocklebur plant response rating: postemergence, scale 0 (no effect) to 100 (complete control)
Method in brief: as §2

[17] = system: corn; assay: Test B pre-/postemergence herbicide test; format: in vivo, Zea mays; conditions: for Corn plant response rating: postemergence, scale 0 (no effect) to 100 (complete control)
Method in brief: as §1

[18] = system: giant foxtail; assay: Test B pre-/postemergence herbicide test; format: in vivo, Setaria faberi; conditions: for Foxtail, Giant plant response rating: postemergence, scale 0 (no effect) to 100 (complete control)
Method in brief: as §1

[19] = 125 g ai/ha, 0 = no effect, 100 = complete control, preemergence
[20] = 500 g ai/ha, visual rating, 0 = no effect, 100 = complete control, preemergence

Compound: CCc1nn(C(C)(C)C)cc1C(=O)Nc1ccc(F)c(C(=O)N(C)C)c1 [Compound 239]
- Crabgrass, Large plant response rating (0 to 100 scale) [1, 19]: 0
- Plant response rating, Crabgrass, Large [1, 20]: 100
- Crabgrass, Large plant response rating ([1]; 125 g ai/ha, visual rating): 0
- Crabgrass, Large plant response rating ([1]; 500 g ai/ha, visual rating): 20
- Morningglory plant response rating (0 to 100 scale) [2, 19]: 0
- Plant response rating, Morningglory [2, 20]: 0
- Morningglory plant response rating ([2]; 125 g ai/ha, visual rating): 0
- Morningglory plant response rating ([2]; 500 g ai/ha, visual rating): 10
- Oat, Wild plant response rating ([3]; 125 g ai/ha): 0
- Oat, Wild plant response rating ([3]; 500 g ai/ha): 0
- Velvetleaf plant response rating (0 to 100 scale) [4, 19]: 0
- Plant response rating, Velvetleaf [4, 20]: 0
- Velvetleaf plant response rating ([4]; 125 g ai/ha, visual rating): 0
- Velvetleaf plant response rating ([4]; 500 g ai/ha, visual rating): 10
- Lambsquarters plant response rating (0 to 100 scale) [5, 19]: 20
- Plant response rating, Lambsquarters [5, 20]: 70
- Lambsquarters plant response rating ([5]; 125 g ai/ha, visual rating): 0
- Lambsquarters plant response rating ([5]; 500 g ai/ha, visual rating): 30
- Wheat plant response rating ([6]; 125 g ai/ha): 0
- Wheat plant response rating ([6]; 500 g ai/ha): 0
- Surinam Grass plant response rating (0 to 100 scale) [7, 19]: 0
- Plant response rating, Surinam Grass [7, 20]: 0
- Surinam Grass plant response rating ([7]; 125 g ai/ha, visual rating): 0
- Surinam Grass plant response rating ([7]; 500 g ai/ha, visual rating): 30
- Rice plant response rating (0 to 100 scale) ([8]; 125 g ai/ha): 0
- Plant response rating, Rice ([8]; 500 g ai/ha, visual rating): 0
- Blackgrass plant response rating ([9]; 125 g ai/ha): 0
- Blackgrass plant response rating ([9]; 500 g ai/ha): 0
- Sedge, Umbrella plant response rating [10]: 70
- Pigweed plant response rating (0 to 100 scale) [11, 19]: 0
- Plant response rating, Pigweed [11, 20]: 70
- Pigweed plant response rating ([11]; 125 g ai/ha, visual rating): 20
- Pigweed plant response rating ([11]; 500 g ai/ha, visual rating): 50
- Barnyardgrass plant response rating [12]: 0
- Rice plant response rating [13]: 30
- Ducksalad plant response rating [14]: 0
- Barnyardgrass plant response rating (0 to 100 scale) [15, 19]: 0
- Plant response rating, Barnyardgrass [15, 20]: 60
- Barnyardgrass plant response rating ([15]; 125 g ai/ha, visual rating): 0
- Barnyardgrass plant response rating ([15]; 500 g ai/ha, visual rating): 0
- Cocklebur plant response rating (0 to 100 scale) [16, 19]: 0
- Plant response rating, Cocklebur [16, 20]: 0
- Cocklebur plant response rating ([16]; 125 g ai/ha, visual rating): 0
- Cocklebur plant response rating ([16]; 500 g ai/ha, visual rating): 20
- Corn plant response rating (0 to 100 scale) [17, 19]: 0
- Plant response rating, Corn [17, 20]: 0
- Corn plant response rating ([17]; 125 g ai/ha, visual rating): 0
- Corn plant response rating ([17]; 500 g ai/ha, visual rating): 20
- Foxtail, Giant plant response rating (0 to 100 scale) [18, 19]: 0
- Plant response rating, Foxtail, Giant [18, 20]: 0
- Foxtail, Giant plant response rating ([18]; 125 g ai/ha, visual rating): 0
- Foxtail, Giant plant response rating ([18]; 500 g ai/ha, visual rating): 0

Source: patent publication US20060069132A1, “Azolecarboxamide herbicides” (priority 2004, published 2006)
